Results reported in patent publication US20060247439A1, “Mchir antagonists” (AstraZeneca AB, priority 2002, published 2006).
pIC50: −log10 of the molar value.

Target: T1, human Melanin concentrating hormone receptor 1 (MCH1r) (Homo sapiens, UniProt Q99705)
T1 construct: expressed in transfected cells; membranes)
Assay: MCH1 Receptor Radioligand Binding
Details: membranes from HEK293 cells stably expressing human MCH1r; radioligand 125I-MCH
Procedure: MCH1 Receptor Radioligand Binding.
Assays were performed on membranes prepared from HEK293 cells stably expressing the human Melanin concentrating hormone receptor 1 (MCH1r) (Lembo et al. Nature Cell Biol 1 267-271). Assays were performed in a 96-well plate format in a final reaction volume of 200 μl per well. Each well contained 6,1 μg of membrane proteins diluted in binding buffer (50 mM Tris, 3 mM MgCl2, 0.05% bovine serum albumin (BSA) and the radioligand ^125I-MCH (IM344 Amersham) was added to give 10 000 cpm (counts per Minute) per well Each well contained 2 μl of the appropriate concentration of competitive antagonist prepared in DMSO and left to stand at room temperature for 60 minutes. Non-specific binding was determined as that remaining following incubation with […] MCH (Melanin concentrating hormone, H-1482 Bachem). The reaction was terminated by transfer of the reaction to GF/A filters using a Micro96 Harvester (Skatron Instruments, Norway). Filters were washed with assay buffer; Radioligand retained on the filters was quantified using a1450 Microbeta TRILUX (Wallac, Finland).
Non-specific binding was subtracted from all values determined. Maximum binding was that determined in the absence of any competitor following subtraction of the value determined for non-specific binding. Binding of compounds at various concentrations was plotted according to the equation y=A+(B−A)/1+((C/x)ˆD))) and IC50 estimated where […]
A is the bottom plateau of the curve i.e. the final minimum y value
B is the top of the plateau of the curve i.e. the final maximum y value
C is the x value at the middle of the curve. This represents the log EC50 value when A+B=100 […]
x is the original known x values. y is the original known y values.

T1 sequence (Q99705 whole entry): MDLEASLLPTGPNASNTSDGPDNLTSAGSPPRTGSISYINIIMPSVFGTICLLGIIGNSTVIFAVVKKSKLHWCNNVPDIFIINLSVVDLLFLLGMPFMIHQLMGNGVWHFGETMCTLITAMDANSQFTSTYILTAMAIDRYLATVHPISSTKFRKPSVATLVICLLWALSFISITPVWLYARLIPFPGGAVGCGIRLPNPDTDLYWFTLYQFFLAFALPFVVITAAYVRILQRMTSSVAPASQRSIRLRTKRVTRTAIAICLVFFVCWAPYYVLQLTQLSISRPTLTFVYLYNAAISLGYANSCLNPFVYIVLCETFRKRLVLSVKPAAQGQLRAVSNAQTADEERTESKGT

| pIC50 | SMILES |
| --- | --- |
| 8.00 | COc1ccc2nc(NCCCNCc3ccsc3)cc(C)c2c1 [Example 2, N-(6-Methoxy-4-methyl-2-quinolinyl)-N′-(3-thienylmethyl)-1,3-propanediamine] |
| 6.40 | Clc1ccc(CNC2CCC(Nc3ccc4ccccc4n3)CC2)cc1Cl (mixture of isomers) [Example 29, N-[(3,4-Dichlorophenyl)methyl]-N′-(2-quinolinyl)-1,4-cyclohexanediamine] |
| 6.25 | COc1ccc2nc(NC3CCCC(NCc4cc5ccccc5o4)C3)cc(C)c2c1 (mixture of isomers) [Example 53, N-(1-benzofuran-2-ylmethyl)-N′-(6-methoxy-4-methylquinolin-2-yl)cyclohexane-1,3-diamine] |
